Reference: patent US20050196806A1, “Prostate specific antigen oligoepitope peptide” (The Government of the USA, as represented by the Secretary, …, priority 1996, published 2005)
Values after ≈ are worked out from the molar mass of the structure shown. Marks after values point to notes of the source that are not given here. Residues, ends and D or L forms follow the SMILES beside them.

How the values were obtained:
human HLA A2 molecules = target: T1, human HLA A2 molecules (Homo sapiens, UniProt P04439, D140Y/D185E/D98H/E176V/E277Q/G131W/G231S/I119V/I121R/I166T/I218V/L300P/L318F/N151K/N90K/P208A/P217A/Q86G/Q94H/R138H/R169H/T345S); assay: T2 cell binding assay (PSA peptide binding assay, Example II); conditions: peptides at 50 μg/ml, None = 127.25
T1 construct: endogenous in cells; host or cells: T2 cells (174CEM.T2)
Description: The amino acid sequence of human PSA was scanned using a predictive algorithm that combines a search for anchor residues with numerical assignments to all residues at all positions. The T2 cell binding assay was then used to determine which peptides bound human HLA A2 molecules. […] Table 7 gives the amino acid sequence of these peptides and compares them to corresponding sequences of HGK and PKA.

[1] = Solubility of synthesized peptide; type: physicochemical; conditions: in 1% DMSO
Protocol: PSA-OP was synthesized on an Applied Biosystems Model 432A peptide synthesizer. It operates on a 25 μmole scale and employs f-moc chemistry and feedback monitoring to control the coupling of each successive amino acid to the growing chain. The completed peptide is cleaved off the synthesis resin with -trifluoroacetic acid and thioanisole/ethanedithiol as scavengers. Acid salts are extracted with tert-butyl methyl ether and the peptide is lyophilized from water to give approximately 64 mg powder. The powder is soluble at 2 mg/ml in 1% DMSO and sterile-filtered aliquots show a single sharp peak on C18 reverse phase high performance liquid chromatography.

CIR-A2 cells = assay: Effects of protease inhibitors on CTL mediated killing of CIRA2 cells pulsed with PSA-OP; type: cell-based, human; conditions: Donor-1 PSA-OP CTL, 25:1 E:T ratio; for % of Specific Release (+/−SD), CIRA2 cells, No peptide: Medium 7.7 (1.9)
Protocol: Various target cells were labeled with 50 μCi of ^111In-oxyquinoline (Medi-Physics Inc., Arlington, Ill.) for 15 minutes at room temperature. Target cells (0.2×10^4) in 100 μl of complete medium (see below) were added to each of 96 wells in flat bottom assay plates (Corning Costar Corp.). The labeled targets were incubated with peptides at a final concentration of 50 μg/ml for 60 min at 37° C. in 5% CO2 before adding effector cells. Effector cells were suspended in 100 μl of complete medium supplemented with 5% pooled human AB serum and added to target cells. The plates were incubated at 37° C. for 16 hours. Supernatants were harvested for γ-counting using harvester frames (Skatron, Inc. Sterling, Va.). Determinations were carried out in triplicate and standard deviations were calculated. All experiments were carried out three times. Specific Lysis was calculated using the following formula: % of Specific Release=observed release(cpm)−spontaneous release(cpm) total releae(cpm)−spontaneous release(cpm)×100
[…] Peptide pulsed target cells were incubated with protease inhibitors. Protease inhibitors used were E64, carboxypeptidase inhibitor, plummer inhibitor, and captopril (angiotension converting enzyme inhibitor) at various concentrations (10^−5, 10^−6, 10^−7 M). CTL activity was determined by the CTL assay described above.

[2] = target: T2, HLA class-I A2001 molecule (Homo sapiens, UniProt P04439, D140Y/D185E/D98H/E176V/E277Q/G131W/G231S/I119V/I121R/I166T/I218V/L300P/L318F/N151K/N90K/P208A/P217A/Q86G/Q94H/R138H/R169H/T345S); assay: Peptide binding to HLA-A2: upregulation on T2 cells by flow cytometry (Example IV); conditions: T2 cells incubated 24 h with peptide 50 μg/ml/10^6 cells; 100 cut off value for positivity; None = 16.88
T2 construct: endogenous in cells; host or cells: T2 cells (174CEM.T2, transport deletion mutant)
Protocol: 1×10^6 cells in serum-free IMDM were incubated with peptides at the concentration of 50 μg/ml in 24-well culture plates at 37° C. in 5% CO2. Flow cytometry for peptide binding was performed using T2 cells and single color analysis. After cells were washed three times in DPBS as above, they were incubated for 1 hr with HLA-A2 specific MAb A2,69 (One lambda, Inc., Canoga Park, Calif.), using 10 μl of a 1× working dilution per 10^6 cells. MOPC-21 (Cappel/Organon Teknika Corp.) was used as isotype control. The cells were then washed three times and incubated with 1:100 dilution of fluorescein (FITC) labeled anti-mouse IgG (Kirkegaard & Perry, Gaithersburg, Md.). Analysis was carried out using the FACScan as described above. Cells were maintained on ice during all cell preparation and staining unless otherwise stated.

T2 cells = assay: Cytotoxic assay of PSA peptide specific T cells against T2 cells; type: cell-based, human; conditions: 24 hour assay, E:T ratio 25:1
[3] = tested on: PSA negative human colon cancer cell line COLO-205; assay: Cytotoxic assay of PSA peptide specific T cells against COLO-205; type: cell-based; conditions: 24 hour assay, E:T ratio 25:1
Description: (§1) Four of the T cell lines derived from three different individuals were then assays for their ability to lyse human cells (Table 9). […] No lysis was seen using the PSA negative human colon cancer cell line COLO-205. While 80% lysis was seen using the LNCAP PSA expressing human prostate cancer cell line. When employing the NK target K562, which measures non-specific lysis due to NK cell activity, only 23% lysis was obtained. Similar results were seen employing a different T cell line obtained from the same patient which was derived from pulsing with PSA peptide 154-163. Two additional T cell lines which were derived from peptide 154-163 were also analyzed. One was from a normal donor (T-1538) and one was from a prostate cancer patient (T-PC2; T Donor C).

NK target K562 = assay: Cytotoxic assay of PSA peptide specific T cells against K562; type: cell-based, human; conditions: 24 hour assay, E:T ratio 25:1
Description: as §1

[4] = tested on: LNCAP PSA expressing human prostate cancer cell line; assay: Cytotoxic assay of PSA peptide specific T cells against LNCAP (Example III); type: cell-based; conditions: 24 hour assay, E:T ratio 25:1
Description: as §1

[5] = tested on: PBLs isolated from male HLA-A2001+ donors; assay: Limiting dilution analysis of CTL precursor frequency; type: cell-based, human; conditions: for Number of precursors (precursor frequency): calculated by X^2 minimization; for % of negative microcolonies, 10,000: two cycles of stimulation with the peptide, targets CIRA2 pulsed 3 h, cold K562
Protocol: Limiting dilution assays were used for the determination of precursor frequencies to PSA-1, PSA-3 and PSA-OP. Various number of PBMCs were seeded in 96-well flat bottom plates (Coming Costar) with 1×10^4 autologous PBMC irradiated with 4,000 rads and incubated with 50 μg/ml of PSA peptide. Cells were cultured in complete medium as described previously. At least 48 cultures were set up for each dilution. Cultures were incubated for 5 days at 37° C. in a humidified atmosphere containing 5% CO2 and then provided with fresh medium containing human IL-2 for 11 days, with IL-2-containing medium being replenished every 72 hr as shown below for CTLs generation. After two cycles of stimulation specific cytotoxic activity was tested for each single well, against CIR-A2 target cells with or without incubation with peptide. Cytotoxic assays were similar to the method described above. The unlabelled K562 cells were added to the microwells containing responder cells. After 1 hr incubation at 37° C. target cells were added into each well and incubated for 6 hrs at 37° C. Precursor frequencies were calculated by X^2 minimization.

[6] = tested on: PBMC from normal healthy donors expressing the HLA A2 class 1 allele; assay: Establishment of human T cell lines by pulsing PBMC with peptide and IL-2; type: cell-based; conditions: donors with T cell line / donors tested; PBMC pulsed with peptide and IL-2
Description: Cytotoxic T-cells specific for PSA can be established from peripheral blood mononuclear cells (PBMC) obtained from a host immunized as discussed above. For example, PBMC can be separated by using Lymphocyte Separation Medium gradient (Organon Teknika, Durham, N.C., USA) as previously described [Boyum et al, Scand J. Clin Lab Invest 21:77-80 (1968)]. Washed PBMC are resuspended in a complete medium, for example, RPMI 1640 (GIBCO) supplemented with 10% pool human AB serum (Pel-Freeze Clinical System, Brown Dear, Wisc., USA), 2 mM glutamine, 100 U/ml penicillin and 100 μg/ml of streptomycin (GIBCO). PBMC at a concentration of about 2×10^5 cells in complete medium in a volume of, for example 100 μl are added into each well of a 96-well flat-bottom assay plate (Costar, Cambridge, Mass., USA). The antigen or peptides are added into the cultures in a final concentration of about 50 μg/ml and incubated at 37° C. in a humidified atmosphere containing 5% CO2 for 5 days. After removal of peptide containing media, the cultures are provided with fresh human IL-2 (10 U/ml) after 5 days and replenished with IL-2 containing medium every 3 days. Primary cultures are restimulated with the same peptide (50 μg/ml) on day 16. 5×10^5 irradiated (4,000 rad) autologous PBMC are added in a volume of about 50 μl complete medium as antigen-presenting cells (APC). […]

[7] = T-Donor C T-cell line (prostate cancer patient)

For KLQCVDLHV [PSA 146-154, ID No. 9], the “MAb A2, 69: Mean channel fluorescent intensity” value (from here on “MAb A2”) (human HLA A2 molecules) was 223.97 and the “MAb A2” value (human HLA A2 molecules; listed as 146-154) was “positive”.
`CC[C@H](C)[C@H](NC(=O)[C@@H](NC(=O)[C@H](Cc1c[nH]cn1)NC(=O)[C@H](CC(C)C)NC(=O)[C@H](CC(=O)O)NC(=O)[C@@H](NC(=O)[C@H](CS)NC(=O)[C@H](CCC(N)=O)NC(=O)[C@H](CC(C)C)NC(=O)[C@H](CCCCN)NC(=O)[C@H](CCCCN)NC(=O)[C@@H]1CCCN1C(=O)[C@@H](NC(=O)[C@H](CC(C)C)NC(=O)[C@@H](N)Cc1ccccc1)[C@@H](C)O)C(C)C)C(C)C)C(=O)N[C@@H](CO)C(=O)N[C@@H](CC(N)=O)C(=O)N[C@@H](CC(=O)O)C(=O)N[C@H](C(=O)N[C@@H](CS)C(=O)N[C@@H](C)C(=O)N[C@@H](CCC(N)=O)C(=O)N[C@H](C(=O)N[C@@H](Cc1c[nH]cn1)C(=O)N1CCC[C@H]1C(=O)N[C@@H](CCC(N)=O)C(=O)N[C@@H](CCCCN)C(=O)N[C@H](C(=O)N[C@H](C(=O)N[C@@H](CCCCN)C(=O)O)[C@@H](C)O)C(C)C)C(C)C)C(C)C` [PSA-OP] (H-FLTPKKLQCVDLHVISNDVCAQVHPQKVTK-OH; N-terminus and C-terminus assumed) gave a solubility [1] of 2 mg/mL (≈ 590 µM).
With `C[C@H](CS)C(=O)N1CCC[C@H]1C(=O)O` [Captopril, captopril] the “% of Specific Release (+/−SD), CIRA2 cells pulsed with PSA-OP peptide [50 μg/ml]” value (CIR-A2 cells; inhibitor 10^−6 M) was 11.0 (2.6) % and the “% of Specific Release (+/−SD), CIRA2 cells, No peptide” value (CIR-A2 cells; inhibitor 10^−6 M) was 15.8 (2.1) %.
With `CC(C)C[C@H](NC(=O)[C@H]1O[C@@H]1C(=O)O)C(=O)NCCCCN=C(N)N` [E 64] the “% of Specific Release (+/−SD), CIRA2 cells pulsed with PSA-OP peptide [50 μg/ml]” value (CIR-A2 cells; inhibitor 10^−6 M) was 13.7 (0.6) % and the “% of Specific Release (+/−SD), CIRA2 cells, No peptide” value (CIR-A2 cells; inhibitor 10^−6 M) was 11.9 (1.7) %.
For VISNDVCAQV [PSA-3, ID No. 2], the “T2 binding: relative fluorescence (mean intensity) with anti-HLA-A2 mAb” value [2] was 123.71, the “% specific release (lysis), T2” value (T2 cells; T-Donor A T-cell line derived with the peptide, 111In release) was 16% and the “% specific release (lysis), T2 + peptide” value (T2 cells; T-Donor A T-cell line) was 35^b %. For the same molecule, the “% specific release (lysis), T2” value (T2 cells; T-Donor B T-cell line) was 10%, the “% specific release (lysis), T2 + peptide” value (T2 cells; T-Donor B T-cell line) was 40^b % and the “% specific release (lysis), T2” value (T2 cells; [7]) was 15%. The “% specific release (lysis), T2 + peptide” value (T2 cells; [7]) was 35^b %, the “MAb A2” value (human HLA A2 molecules; listed as 154-163) was “positive” and the “MAb A2” value (human HLA A2 molecules; listed as PSA 154-163) was 182.30. For the same molecule, the “% specific release (lysis), COLO-205” value ([3]; T-Donor A T-cell line) was 10%, the “% specific release (lysis), COLO-205” value ([3]; T-Donor B T-cell line) was 10% and the “% specific release (lysis), COLO-205” value [3, 7] was 8%. For the same molecule, the “% specific release (lysis), K562” value (NK target K562; T-Donor A T-cell line) was 22%, the “% specific release (lysis), K562” value (NK target K562; T-Donor B T-cell line) was 3% and the “% specific release (lysis), K562” value (NK target K562; [7]) was 2%. For the same molecule, the “% specific release (lysis), LNCAP” value ([4]; T-Donor A T-cell line) was 60^b %, the “% specific release (lysis), LNCAP” value ([4]; T-Donor B T-cell line) was 29^b % and the “% specific release (lysis), LNCAP” value [4, 7] was 35^b %. For the same molecule, the “% of negative microcolonies, 500” value ([5]; T/PSA-OP 2 donor) was 100.0%, the “% of negative microcolonies, 1,000” value ([5]; T/PSA-OP 2 donor) was 100.0% and the “% of negative microcolonies, 5,000” value ([5]; T/PSA-OP 2 donor) was 97.8%. The “Number of precursors (precursor frequency)” value ([5]; T/PSA-OP 2 donor) was 1/244200, the “% of negative microcolonies, 10,000” value ([5]; T/PSA-OP 2 donor) was 95.8% and the “% of negative microcolonies, 500” value ([5]; T/PSA-OP 3 donor) was 97.6%. For the same molecule, the “% of negative microcolonies, 1,000” value ([5]; T/PSA-OP 3 donor) was 95.8%, the “% of negative microcolonies, 5,000” value ([5]; T/PSA-OP 3 donor) was 93.7% and the “Number of precursors (precursor frequency)” value ([5]; T/PSA-OP 3 donor) was 1/59279. The “% of negative microcolonies, 10,000” value ([5]; T/PSA-OP 3 donor) was 89.6% and the “T cell lines established from normal donors” value [6] was 6/6.
In the case of `NC(N)=NCCSCC(CS)C(=O)O` (centres unmarked) [Plummer's], the “% of Specific Release (+/−SD), CIRA2 cells, No peptide” value (CIR-A2 cells; inhibitor 10^−5 M) is reported as 10.7 (2.0) %.
In the case of “PSA [42-51]: negative control peptide, unable to bind HLA class I-A2 [reference compound]”, the “T2 binding: relative fluorescence (mean intensity) with anti-HLA-A2 mAb” value [2] is reported as 51.44.
